# Laboratory results taken from PubChem BioAssay (NCI).
#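 Grown in 96-well plates, cells were treated for 48 hours with each compound at five concentrations. Insufficient inhibition: endpoint recorded as highest concentration tested. GI50 is the concentration that inhibits growth by half. TGI denotes the concentration required for complete inhibition of growth.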
# How the values were obtained:
# Experiment in all cases: NCI-60 cell line screen, 48 h
# 786-0 renal = system: 786-0 renal
# A549 NSCLC = system: A549 NSCLC
# ACHN renal = system: ACHN renal
# BT-549 breast = system: BT-549 breast
# CAKI-1 renal = system: CAKI-1 renal
# COLO 205 colon = system: COLO 205 colon
# DU-145 prostate = system: DU-145 prostate
# EKVX NSCLC = system: EKVX NSCLC
# HCC-2998 colon = system: HCC-2998 colon
# HCT-116 colon = system: HCT-116 colon
# HOP-62 NSCLC = system: HOP-62 NSCLC
# HOP-92 NSCLC = system: HOP-92 NSCLC
# HS 578T breast = system: HS 578T breast
# IGROV1 ovarian = system: IGROV1 ovarian
# K-562 leukemia = system: K-562 leukemia
# KM12 colon = system: KM12 colon
# MALME-3M melanoma = system: MALME-3M melanoma
# MDA-MB-231 breast = system: MDA-MB-231 breast
# MDA-MB-435 = system: MDA-MB-435
# NCI-H226 lung = system: NCI-H226 lung
# NCI-H23 lung = system: NCI-H23 lung
# NCI-H460 lung = system: NCI-H460 lung
# NCI-H522 lung = system: NCI-H522 lung
# NCI/ADR-RES ovarian = system: NCI/ADR-RES ovarian
# OVCAR-3 ovarian = system: OVCAR-3 ovarian
# OVCAR-4 ovarian = system: OVCAR-4 ovarian
# OVCAR-5 ovarian = system: OVCAR-5 ovarian
# OVCAR-8 ovarian = system: OVCAR-8 ovarian
# PC-3 prostate = system: PC-3 prostate
# RPMI-8226 leukemia = system: RPMI-8226 leukemia
# RXF 393 renal = system: RXF 393 renal
# SF-268 CNS = system: SF-268 CNS
# SF-295 CNS = system: SF-295 CNS
# SF-539 CNS = system: SF-539 CNS
# SK-MEL-2 melanoma = system: SK-MEL-2 melanoma
# SK-MEL-28 melanoma = system: SK-MEL-28 melanoma
# SK-MEL-5 melanoma = system: SK-MEL-5 melanoma
# SK-OV-3 ovarian = system: SK-OV-3 ovarian
# SN12C renal = system: SN12C renal
# SNB-19 CNS = system: SNB-19 CNS
# SNB-75 CNS = system: SNB-75 CNS
# SR leukemia = system: SR leukemia
# SW-620 colon = system: SW-620 colon
# T-47D breast = system: T-47D breast
# TK-10 renal = system: TK-10 renal
# U251 CNS = system: U251 CNS
# UACC-257 melanoma = system: UACC-257 melanoma
# UACC-62 melanoma = system: UACC-62 melanoma
# UO-31 renal = system: UO-31 renal
smiles,measurement,setting,value
COC(=O)/C=C1/SC(=Nc2ccc(F)cc2)N(CCc2c[nH]c3ccc(O)cc23)C1=O,GI50,786-0 renal,6.85 µM
same,TGI,786-0 renal,40.1 µM
same,GI50,A549 NSCLC,41.2 µM
same,TGI,A549 NSCLC,> 100 µM
same,GI50,ACHN renal,7.29 µM
same,TGI,ACHN renal,> 100 µM
same,GI50,BT-549 breast,3.75 µM
same,TGI,BT-549 breast,38.4 µM
same,GI50,CAKI-1 renal,24.9 µM
same,TGI,CAKI-1 renal,> 100 µM
same,GI50,COLO 205 colon,> 100 µM
same,TGI,COLO 205 colon,> 100 µM
same,GI50,DU-145 prostate,5.92 µM
same,TGI,DU-145 prostate,> 100 µM
same,GI50,EKVX NSCLC,20.7 µM
same,TGI,EKVX NSCLC,> 100 µM
same,GI50,HCC-2998 colon,> 100 µM
same,TGI,HCC-2998 colon,> 100 µM
same,GI50,HCT-116 colon,4.89 µM
same,TGI,HCT-116 colon,> 100 µM
same,GI50,HOP-62 NSCLC,3.83 µM
same,TGI,HOP-62 NSCLC,19.7 µM
same,GI50,HOP-92 NSCLC,6.21 µM
same,TGI,HOP-92 NSCLC,29.6 µM
same,GI50,HS 578T breast,4.28 µM
same,TGI,HS 578T breast,35.7 µM
same,GI50,IGROV1 ovarian,5.79 µM
same,TGI,IGROV1 ovarian,> 100 µM
same,GI50,K-562 leukemia,> 100 µM
same,TGI,K-562 leukemia,> 100 µM
same,GI50,KM12 colon,5.56 µM
same,TGI,KM12 colon,> 100 µM
same,GI50,MALME-3M melanoma,12.9 µM
same,TGI,MALME-3M melanoma,> 100 µM
same,GI50,MDA-MB-231 breast,14.8 µM
same,TGI,MDA-MB-231 breast,> 100 µM
same,GI50,MDA-MB-435,3.79 µM
same,TGI,MDA-MB-435,> 100 µM
same,GI50,NCI-H226 lung,4.17 µM
same,TGI,NCI-H226 lung,47.4 µM
same,GI50,NCI-H23 lung,7.49 µM
same,TGI,NCI-H23 lung,> 100 µM
same,GI50,NCI-H460 lung,4.71 µM
same,TGI,NCI-H460 lung,> 100 µM
same,GI50,NCI-H522 lung,3.85 µM
same,TGI,NCI-H522 lung,> 100 µM
same,GI50,NCI/ADR-RES ovarian,4.69 µM
same,TGI,NCI/ADR-RES ovarian,> 100 µM
same,GI50,OVCAR-3 ovarian,4.41 µM
same,TGI,OVCAR-3 ovarian,> 100 µM
same,GI50,OVCAR-4 ovarian,3.37 µM
same,TGI,OVCAR-4 ovarian,22.7 µM
same,GI50,OVCAR-5 ovarian,> 100 µM
same,TGI,OVCAR-5 ovarian,> 100 µM
same,GI50,OVCAR-8 ovarian,4.45 µM
same,TGI,OVCAR-8 ovarian,67.5 µM
same,GI50,PC-3 prostate,7.05 µM
same,TGI,PC-3 prostate,> 100 µM
same,GI50,RPMI-8226 leukemia,3.01 µM
same,TGI,RPMI-8226 leukemia,> 100 µM
same,GI50,RXF 393 renal,2.23 µM
same,TGI,RXF 393 renal,8.98 µM
same,GI50,SF-268 CNS,5.96 µM
same,TGI,SF-268 CNS,42.7 µM
same,GI50,SF-295 CNS,12 µM
same,TGI,SF-295 CNS,41.3 µM
same,GI50,SF-539 CNS,6.42 µM
same,TGI,SF-539 CNS,26.1 µM
same,GI50,SK-MEL-2 melanoma,2.76 µM
same,TGI,SK-MEL-2 melanoma,9.06 µM
same,GI50,SK-MEL-28 melanoma,7.34 µM
same,TGI,SK-MEL-28 melanoma,> 100 µM
same,GI50,SK-MEL-5 melanoma,11.1 µM
same,TGI,SK-MEL-5 melanoma,77.3 µM
same,GI50,SK-OV-3 ovarian,24.4 µM
same,TGI,SK-OV-3 ovarian,> 100 µM
same,GI50,SN12C renal,8.44 µM
same,TGI,SN12C renal,> 100 µM
same,GI50,SNB-19 CNS,9.28 µM
same,TGI,SNB-19 CNS,51.9 µM
same,GI50,SNB-75 CNS,4.01 µM
same,TGI,SNB-75 CNS,18.3 µM
same,GI50,SR leukemia,2.08 µM
same,TGI,SR leukemia,> 100 µM
same,GI50,SW-620 colon,> 100 µM
same,TGI,SW-620 colon,> 100 µM
same,GI50,T-47D breast,4.4 µM
same,TGI,T-47D breast,> 100 µM
same,GI50,TK-10 renal,14 µM
same,TGI,TK-10 renal,58.7 µM
same,GI50,U251 CNS,4.32 µM
same,TGI,U251 CNS,27.3 µM
same,GI50,UACC-257 melanoma,9.82 µM
same,TGI,UACC-257 melanoma,> 100 µM
same,GI50,UACC-62 melanoma,4.75 µM
same,TGI,UACC-62 melanoma,27.7 µM
same,GI50,UO-31 renal,7.07 µM
same,TGI,UO-31 renal,> 100 µM
